Data taken from paper PMC7559897, “Designed Antimicrobial Peptides Against Trauma-Related Cutaneous Invasive Fungal Wound Infections” (Journal of Fungi, 2020).
Values after ≈ are worked out from the molar mass of the structure shown. Bridge positions count the residues as written; N and C are the ends. Peptide text beside a SMILES is read from it.

Assays:
[1] = tested on: S. aureus 49525 (Xen36 luciferase); type: cell-based, Staphylococcus aureus; settings: 8 μg/mL, 60 min incubation, bioluminescence, triplicates from two independent experiments
Excerpt: Fungal and bacterial strains were obtained from American Type Culture Collection (ATCC, Manassas, VA, USA) or the clinical isolate collection at Trideum Biosciences (Frederick, MD, USA) and are presented in Table 1 and Table 2, respectively. Bioluminescence strains of P. aeruginosa 19660, transfected with the Xen5 luciferase gene, and S. aureus ATCC R 49525TM (Wright), transfected with the Xen36 luciferase gene, were obtained from Perkin Elmer (Waltham, MA, USA).
Real-time killing of bacterial cells, P. aeruginosa or S. aureus, and mammalian cytotoxicity to assess dAMP off-target toxicity was evaluated using bioluminescent cells. The L929 fibroblast cells (ATCC, Manassas, VA, USA) were made bioluminescent by transfection with a luciferase gene. Cells (1 × 10^4 cells, 100 μL) were plated in 96-well black-walled plates and the candidate dAMPs were 2-fold serially diluted from specified concentrations in growth medium supplemented with 150 μg/mL D-luciferin. Each concentration was performed in triplicate, with the final volume being 200 μL. Imaging was performed at select times after the addition of the dAMP, and compared to concurrently run vehicle-control, using an IVIS Lumina imaging system (Caliper Life Sciences, Inc., Hopkinton, MA, USA). For imaging, the 96-well plate was positioned on the stage (12.5-cm field of view), with an open emission filter, binning of 4, and f-stop 1 and a 1-min exposure time. Monitoring bioluminescence allows assessment of the kinetics of cellular viability as there is a tight correlation between the bioluminescent signal and cell viability. Data analysis was performed using the Living Image software program (version 4.3, Caliper Life Sciences, Inc., Hopkinton, MA, USA).
Figure 3 RP553, RP556, RP557 rapidly destroy P. aeruginosa and S. aureus. The bioluminescence of viable P. aeruginosa 19,660 and S. aureus 49,525 cells was quantitated in real time with an IVIS Lumina bioimaging system. Data represent the mean ± SE of triplicate replicates from two independent experiments. For some points, the error bars are shorter than the height of the symbols.

[2] = tested on: A. baumannii 6043; type: cell-based, Acinetobacter baumannii; settings: cation adjusted Mueller-Hinton broth, ~10^6 CFU/mL, 24 h, 37 °C, OD600 <0.1 in at least 3 of 4 wells, 2-128 μg/mL; shaded values previously reported ref 18
Protocol: (§1) Assays were performed by Trideum Biosciences (Frederick, MD, USA). Isolates were thawed from −80 °C storage and sub-cultured on trypticase soy agar plates at 37 °C prior to experimentation. A single colony was aseptically picked from the agar plate and released in 30 mL trypticase soy broth and incubated overnight at 37 °C incubator. Following which the bacterial culture was diluted to approximately 10^6 colony forming units (CFU)/mL using 2X cation adjusted Mueller–Hinton broth and added to the dAMP solutions (0, 2, 4, 8, 16, 32, 64, and 128 μg/mL) which had been formulated in water at 256 μg/mL and then serially diluted in media on 96-well pates. For fungal evaluation, potato dextrose broth and potato dextrose agar plates were used. The treated cultures were then incubated for 24 h at 37 °C and pathogen growth was measured by absorbance at 600 nm. Four replicas were included for each dAMP concentration. Each MIC was assigned to the lowest test agent concentration resulting in at least three out of four wells showing no growth based on an optical density (OD) reading of <0.1.

[3] = tested on: A. baumannii ATCC 17978; type: cell-based, Acinetobacter baumannii; settings: cation adjusted Mueller-Hinton broth, ~10^6 CFU/mL, 24 h, 37 °C, OD600 <0.1 in at least 3 of 4 wells, 2-128 μg/mL; shaded values previously reported ref 18
Protocol: as §1

[4] = tested on: A. baumannii 6838; type: cell-based, Acinetobacter baumannii; settings: cation adjusted Mueller-Hinton broth, ~10^6 CFU/mL, 24 h, 37 °C, OD600 <0.1 in at least 3 of 4 wells, 2-128 μg/mL; shaded values previously reported ref 18
Protocol: as §1

[5] = tested on: Candida albicans Y-326; type: cell-based; settings: potato dextrose broth, 24 h, 37 °C, OD600 <0.1 in at least 3 of 4 wells, dose range 2 to 128 µg/mL; shaded values previously reported ref 17
Protocol: as §1

[6] = tested on: Aspergillus fumigatus 9651; type: cell-based; settings: potato dextrose broth, 24 h, 37 °C, OD600 <0.1 in at least 3 of 4 wells, dose range 2 to 128 µg/mL; shaded values previously reported ref 17
Protocol: as §1

[7] = tested on: E. cloacae 6053; type: cell-based; settings: cation adjusted Mueller-Hinton broth, ~10^6 CFU/mL, 24 h, 37 °C, OD600 <0.1 in at least 3 of 4 wells, 2-128 μg/mL; shaded values previously reported ref 18
Protocol: as §1

[8] = tested on: Candida parapsilosis Y-1763; type: cell-based; settings: potato dextrose broth, 24 h, 37 °C, OD600 <0.1 in at least 3 of 4 wells, dose range 2 to 128 µg/mL; shaded values previously reported ref 17
Protocol: as §1

[9] = tested on: S. epidermis ATCC 51625; type: cell-based; settings: cation adjusted Mueller-Hinton broth, ~10^6 CFU/mL, 24 h, 37 °C, OD600 <0.1 in at least 3 of 4 wells, 2-128 μg/mL; shaded values previously reported ref 18
Protocol: as §1

[10] = tested on: Candida krusei Y-27803; type: cell-based; settings: potato dextrose broth, 24 h, 37 °C, OD600 <0.1 in at least 3 of 4 wells, dose range 2 to 128 µg/mL; shaded values previously reported ref 17
Protocol: as §1

[11] = tested on: Aspergillus flavus MYA-3651; type: cell-based; settings: potato dextrose broth, 24 h, 37 °C, OD600 <0.1 in at least 3 of 4 wells, dose range 2 to 128 µg/mL; shaded values previously reported ref 17
Protocol: as §1

[12] = tested on: Mucor circinelloides NRRL 3631; type: cell-based; settings: potato dextrose broth, 24 h, 37 °C, OD600 <0.1 in at least 3 of 4 wells, dose range 2 to 128 µg/mL; shaded values previously reported ref 17
Protocol: as §1

[13] = tested on: Candida krusei Y-27825; type: cell-based; settings: potato dextrose broth, 24 h, 37 °C, OD600 <0.1 in at least 3 of 4 wells, dose range 2 to 128 µg/mL; shaded values previously reported ref 17
Protocol: as §1

[14] = tested on: Candida parapsilosis Y-1761; type: cell-based; settings: potato dextrose broth, 24 h, 37 °C, OD600 <0.1 in at least 3 of 4 wells, dose range 2 to 128 µg/mL; shaded values previously reported ref 17
Protocol: as §1

[15] = tested on: Candida albicans Y-6359; type: cell-based; settings: potato dextrose broth, 24 h, 37 °C, OD600 <0.1 in at least 3 of 4 wells, dose range 2 to 128 µg/mL; shaded values previously reported ref 17
Protocol: as §1

[16] = tested on: Fusarium solani NRRL 28548; type: cell-based; settings: potato dextrose broth, 24 h, 37 °C, OD600 <0.1 in at least 3 of 4 wells, dose range 2 to 128 µg/mL; shaded values previously reported ref 17
Protocol: as §1

## CC[C@H](C)[C@@H]1NC(=O)CNC(=O)[C@H](CCCCN)NC(=O)[C@H](Cc2ccc(O)cc2)NC(=O)[C@@H]2CSSC[C@H](NC1=O)C(=O)N[C@@H](Cc1ccc(O)cc1)C(=O)N[C@@H](CCCCN)C(=O)N[C@@H](CCCCN)C(=O)N[C@H](C(=O)N[C@@H](CCCCN)C(N)=O)CSSC[C@H](NC(=O)[C@H](Cc1c[nH]c3ccccc13)NC(=O)[C@@H](N)CCCNC(=N)N)C(=O)N[C@@H](Cc1ccccc1)C(=O)N[C@@H](CCCCN)C(=O)N[C@@H](C(C)C)C(=O)N2 [RP556] (H-RWCFKVCYKGICYKKCK-NH2; disulfide 3-16, 7-12)
[1]
  S. aureus killing: 45%
[2]
  MIC against A. baumannii 6043: 8 µg/mL (≈ 3.72 µM)
[3]
  MIC against A. baumannii ATCC 17978: 8 µg/mL (≈ 3.72 µM)
[4]
  MIC against A. baumannii 6838: 8 µg/mL (≈ 3.72 µM)
[5]
  MIC against Candida albicans Y-326: 16 µg/mL (≈ 7.44 µM)
[6]
  MIC against Aspergillus fumigatus 9651: 64 µg/mL (≈ 29.7 µM)
[7]
  MIC against E. cloacae 6053: 8 µg/mL (≈ 3.72 µM)
[8]
  MIC against Candida parapsilosis Y-1763: 2 µg/mL (≈ 0.929 µM)
[9]
  MIC against S. epidermis ATCC 51625: 4 µg/mL (≈ 1.86 µM)
[10]
  MIC against Candida krusei Y-27803: 16 µg/mL (≈ 7.44 µM)
[11]
  MIC against Aspergillus flavus MYA-3651: 64 µg/mL (≈ 29.7 µM)
[12]
  MIC against Mucor circinelloides NRRL 3631: 64 µg/mL (≈ 29.7 µM)
[13]
  MIC against Candida krusei Y-27825: 32 µg/mL (≈ 14.9 µM)
[14]
  MIC against Candida parapsilosis Y-1761: 32 µg/mL (≈ 14.9 µM)
[15]
  MIC against Candida albicans Y-6359: 8 µg/mL (≈ 3.72 µM)
[16]
  MIC against Fusarium solani NRRL 28548: 2 µg/mL (≈ 0.929 µM)
